Source: patent publication US9381349B2, “Apparatus for treating cerebral neurovascular disorders including headaches by neural stimulation” (priority 1997, dated 2016)
“Also recorded” adds a separate entry of the source. Like-named read-outs stand apart in the source and are kept apart here.

Experiments:
acute migraine episodes = format: in vivo, human; set-up: key to Pain Rating After Administration: 0 = no pain, 10 = worst pain imaginable; conditions: for Mean Time Until Maximal Effect: no unit in table (minutes); for Pain Rating After Administration / Pain Relief: mean; for Pain Rating After Administration / Pain Relief / Rate of Pain Relief (migraine pain reduction per minute per gram of drug): 10-point pain scale
Text: The purpose of the experiments described in this Example was to determine the efficacy of dorsonasal administration of ropivacaine for inhibition of acute migraine episodes. Ropivacaine was dorsonasally administered to individual patients experiencing head pain, other symptoms, or both, believed to be associated with an acute migraine episode. Patients assessed head pain prior to and after ropivacaine administration.
Ropivacaine-HCl (NAROPINT™, Astra USA, Westborough, Mass.) was used as the commercially-available 0.75% (w/v) solution, and was obtained in 30 milliliter, sterile injectable vials.
Three methods were used to achieve dorsonasal delivery of ropivacaine to individual patients. Ropivacaine was administered to a first group of patients by an intranasal drip method. Ropivacaine was administered to a second group using cotton swabs, the absorbent portions of which were saturated with the ropivacaine solution. Ropivacaine was administered to patients in a third group by spraying the ropivacaine solution into each nostril, using either a squeeze-type spray bottle or a metered-dose spray bottle.
The intranasal drip method used to administer ropivacaine to the first group of patients was a based on the method described by Barre (1982, Headache 22:69-73), except that the ropivacaine solution was used in place of the solution used by Bane. Approximately 0.75 milliliter to approximately 1.0 milliliter of the ropivacaine solution was administered by way of each of the nostrils of each patient.
The cotton swab method used to administer ropivacaine to the second group of patients comprised gently inserting cotton swabs, sequentially and bilaterally, into the nostrils of patients and urging the swabs dorsally until their absorbent portions contacted portions of nasal epithelium located dorsal to the middle conchae. Each swab was left in place for approximately one minute, and was then withdrawn. Approximately 0.5 milliliter of the ropivacaine solution was delivered to each nostril using this method.
Patients in a third group were administered ropivacaine by spraying less than about 0.5 milliliter of the ropivacaine solution into each of the patient's nostrils using either a sterile squeeze bottle or a sterile metered-dose spray bottle of known design. The design and operation of each of these spray bottles are well known in the art.
Prior to administration of ropivacaine, each patient was placed in a supine position with the patient's head hyperextended approximately 45 degrees and rotated approximately 30 degrees to the right side. In this position, an imaginary line extending from the region of the nasal epithelium overlying the SPG of the patient through the patient's left nostril was approximately vertical. Ropivacaine was then administered to the left nostril of the patient as described for each of the three groups of patients. Ropivacaine was administered to each patient's right nostril after rotating the patient's head approximately 30 degrees to the left. Ropivacaine was administered to both nostrils of each patient to prevent cases of unilateral migraine from developing into contralateral migraine.
Prior to ropivacaine administration, each patient rated perceived headache pain according to a standard pain scale of the type used in the art. Patients were asked to rank the severity of pain which they were experiencing on a scale from 0 (no pain) to 10 (worst pain imaginable). This ten-point pain rating scale is analogous to, but has more gradations than, the four-point rating system used by the International Headache Society (IHS; Headache Classification Committee of the International Headache Society, 1988, Cephalalgia 8(Suppl. 7):19-28). Ropivacaine was administered to one nostril of each patient, and then to the other. The time required to administer ropivacaine to both nostrils of each patient was approximately three minutes. […]

[1] = in vivo; cited from earlier work
[2] = ropivacaine 0.75% (w/v), 2 Metered Sprays per nostril, individual patients, pain scale 0-10
[3] = ropivacaine 0.75% (w/v), 2 Sprays per nostril (squeeze bottle), individual patients, pain scale 0-10
[4] = ropivacaine 0.75% (w/v), 2 cc Drops (nasal drip), individual patients, pain scale 0-10
[5] = ropivacaine 0.75% (w/v), Sat'd Cotton Swab, individual patients, pain scale 0-10
[6] = ropivacaine 0.75% (w/v), Sat'd Cotton Swab, individual patients, pain scale 0-10, listed as R
[7] = ropivacaine vs literature rizatriptan data (Kramer et al.)
[8] = ropivacaine, Cotton Swab, 24 patients
[9] = ropivacaine, Nasal Drops, 3 patients
[10] = ropivacaine, Nasal Spray, 10 patients
[11] = ropivacaine, nasal drops, three patients

CCCN1CCCC[C@H]1C(=O)Nc1c(C)cccc1C [Ropivacaine, ropivacaine]
Adverse effects of administration (acute migraine episodes; human, in vivo): one patient experienced an allergic response to ropivacaine administration | Apparent allergic reaction (acute migraine episodes; human, in vivo): allergic reaction between 5 | Oropharyngeal numbness (acute migraine episodes; human, in vivo): 6 | Time to half maximal inhibition of CNvD or symptom (acute migraine episodes; intranasal or dorsonasal administration): within about three minutes | Pain 10 min post-treatment (acute migraine episodes; [2]): Pain 10 min post-treatment: 0 | Pain 15 min post-treatment (acute migraine episodes; [2]): Pain 15 min post-treatment: 5 | Pain 20 min post-treatment (acute migraine episodes; [2]): Pain 20 min post-treatment: 3 | Pain 45 min post-treatment (acute migraine episodes; [2]): Pain 45 min post-treatment: 0 | Pain 60 min post-treatment (acute migraine episodes; [2]): Pain 60 min post-treatment: 2 | Pain 90 min post-treatment (acute migraine episodes; [2]): Pain 90 min post-treatment: 0 | Pain 2 min post-treatment (acute migraine episodes; [3]): Pain 2 min post-treatment: 0 | Pain 10 min post-treatment (acute migraine episodes; [3]): Pain 10 min post-treatment: 0 | Pain 15 min post-treatment (acute migraine episodes; [3]): Pain 15 min post-treatment: 2 | Pain 20 min post-treatment (acute migraine episodes; [3]): 0 | Pain 30 min post-treatment (acute migraine episodes; [3]): 0 | Pain 3 min post-treatment (acute migraine episodes; [4]): Pain 3 min post-treatment: 0 | Pain 60 min post-treatment (acute migraine episodes; [4]): Pain 60 min post-treatment: 0 | Pain 15 min post-treatment (acute migraine episodes; ropivacaine 0.75% (w/v), 2 cc Drops (nasal drip), individual patients, pain scale 0-10, listed as R): Pain 15 min post-treatment: 0; also recorded: Pain 15 min post-treatment: 5 | Persistence of residual pain (acute migraine episodes; ropivacaine 0.75% (w/v), Sat'd Cotton Swab, P#40): Level 5 pain endured 8 hours | Pain 1 min post-treatment (acute migraine episodes; [5]): Pain 1 min post-treatment: 0 | Pain 8 min post-treatment (acute migraine episodes; [5]): Pain 8 min post-treatment: 0 | Pain 15 min post-treatment (acute migraine episodes; [5]): Pain 15 min post-treatment: 0 | Pain 30 min post-treatment (acute migraine episodes; [5]): Pain 30 min post-treatment: 5 | Pain 18 hrs post-treatment (acute migraine episodes; [5]): Pain 18 hrs post-treatment: 8 | Pain 24 hours post-treatment (acute migraine episodes; [5]): Pain 24 hours post-treatment: 1 | Pain 2 min post-treatment (acute migraine episodes; [6]): Pain 2 min post-treatment: 1; also recorded: Pain 2 min post-treatment: 0 | Pain 3 min post-treatment (acute migraine episodes; [6]): Pain 3 min post-treatment: 0; also recorded: Pain 3 min post-treatment: 1 | Pain 5 min post-treatment (acute migraine episodes; [6]): Pain 5 min post-treatment: 0; also recorded: Pain 5 min post-treatment: 1; also recorded: Pain 5 min post-treatment: 2 | Pain 10 min post-treatment (acute migraine episodes; [6]): Pain 10 min post-treatment: 1; also recorded: Pain 10 min post-treatment: 0 | Pain 20 min post-treatment (acute migraine episodes; [6]): Pain 20 min post-treatment: 3; also recorded: Pain 20 min post-treatment: 0 | Patients with significant pain reduction (acute migraine episodes; ropivacaine 0.75% (w/v), cotton swab): 100% | Effectiveness to reduce pain associated with migraine (acute migraine episodes; ropivacaine 0.75% (w/v), dorsonasal spray): 100% | Pain following spray (acute migraine episodes; ropivacaine 0.75% (w/v), retreated with 2 Sprays 18 hrs after swab treatment (P#14), pain scale 0-10): 0 | Response rate compared with lidocaine (FIG. 3) (acute migraine episodes; ropivacaine vs literature lidocaine data (Maizels et al.)): nearly two-fold greater response rate | Rebound rate compared with rizatriptan (acute migraine episodes; [7]): lower than the rebound rate following rizatriptan administration | Response rate compared with rizatriptan (acute migraine episodes; [7]): greater than the response rate obtained by administration of rizatriptan | Onset of relief and response rate compared with sumatriptan (FIG. 3) (acute migraine episodes; ropivacaine vs literature subcutaneous sumatriptan data): earlier onset of relief and a higher response rate | Mean Reduction in Pain Rating (acute migraine episodes; [8]): 8.64 IHS points | Mean Time Until Maximal Effect (acute migraine episodes; [8]): 7.41 | Pain Rating After Administration (acute migraine episodes; ropivacaine, Cotton Swab): 0.33 | Pain Relief (acute migraine episodes; ropivacaine, Cotton Swab): 8.73 | Rebound Rate (acute migraine episodes; ropivacaine, Dorsonasal Spray): 10% | Relative Efficacy (Rate of Pain Relief divided by that of intranasally spray-administered lidocaine) (acute migraine episodes; ropivacaine, Dorsonasal Spray): 2.45 | Rate of Pain Relief (migraine pain reduction per minute per gram of drug) (acute migraine episodes; ropivacaine, Dorsonasal Spray): 24.5 | Rebound Rate (acute migraine episodes; ropivacaine, Dorsonasal Swab): 4% | Relative Efficacy (Rate of Pain Relief divided by that of intranasally spray-administered lidocaine) (acute migraine episodes; ropivacaine, Dorsonasal Swab): 15.5 | Rate of Pain Relief (migraine pain reduction per minute per gram of drug) (acute migraine episodes; ropivacaine, Dorsonasal Swab): 155 | Rate of Pain Relief (acute migraine episodes; ropivacaine, Nasal Drops): 1.25 IHS points per minute | Mean Reduction in Pain Rating (acute migraine episodes; [9]): 9.00 IHS points | Mean Time Until Maximal Effect (acute migraine episodes; [9]): 26.0 | Pain Rating After Administration (acute migraine episodes; ropivacaine, Nasal Drops): 0.00 | Pain Relief (acute migraine episodes; ropivacaine, Nasal Drops): 9.00 | Rate of Pain Relief (acute migraine episodes; ropivacaine, Nasal Spray): 0.287 IHS points per minute | Mean Reduction in Pain Rating (acute migraine episodes; [10]): 6.22 IHS points | Mean Time Until Maximal Effect (acute migraine episodes; [10]): 33.9 | Pain Rating After Administration (acute migraine episodes; ropivacaine, Nasal Spray): 1.00 | Pain Relief (acute migraine episodes; ropivacaine, Nasal Spray): 6.22 | Patients with complete relief (acute migraine episodes; ropivacaine, all routes): 72% | Patients with migraine inhibited / significant (greater than 50%) reduction of migraine severity (acute migraine episodes; ropivacaine, all routes, thirty-seven migraine patients): 92% | Average reduction in perceived pain (acute migraine episodes; ropivacaine, all routes, within one hour, usually within 15 minutes or less): 90% | Rebound of migraine, patients (acute migraine episodes; ropivacaine, all routes, within twenty-four hours of treatment): 5.4% | Mean time between treatment and perception of the peak effect (acute migraine episodes; ropivacaine, cotton swab): 7.41 ± 1.47 min | Patients achieving a pain severity rating of zero (acute migraine episodes; ropivacaine, cotton swab): 72% | Patients achieving a pain severity rating of zero or one (acute migraine episodes; ropivacaine, cotton swab): 95% | Patients with rebound (acute migraine episodes; ropivacaine, cotton swab): 4% | Rate of Pain Relief (acute migraine episodes; ropivacaine, cotton swab): 2.32 IHS points per minute | Mean peak headache severity rating reduction (acute migraine episodes; ropivacaine, cotton swab, twenty-four patients): 8.73±0.249 points | Mean post-administration pain severity rating at the time of peak effect (acute migraine episodes; ropivacaine, cotton swab, twenty-four patients, mean±standard error, out of 10 points): 0.33±0.14 points | Potency relative to intranasally spray-administered lidocaine (pain relief per unit weight) (acute migraine episodes; ropivacaine, dorsonasally spray-administered): 2.4 times | Potency relative to intranasally spray-administered lidocaine (pain relief per unit weight) (acute migraine episodes; ropivacaine, dorsonasally swab-administered): more than 15 times | Mean time between treatment and perception of the peak effect (acute migraine episodes; [11]): 26.00 ± 17.37 min | Migraine rebound (acute migraine episodes; [11]): None of the three patients experienced migraine rebound | Mean peak headache severity rating reduction (acute migraine episodes; ropivacaine, nasal drops, three patients, out of 10 points): 9.00 points | Mean time between treatment and perception of the peak effect (acute migraine episodes; ropivacaine, nasal spray, ten patients): 33.9 ± 8.48 min | Mean peak headache severity rating reduction (acute migraine episodes; ropivacaine, nasal spray, ten patients, out of 10 points): 6.22±0.66 points | Mean headache pain severity rating reduction in patients without complete relief (acute migraine episodes; ropivacaine, nasal spray, the remainder of ten patients): 87.5±6.49% | Patients without rebound (acute migraine episodes; ropivacaine, patients observed for up to seven days): 95% | Cardiotoxicity [1]: this side effect is not exhibited | Cardiovascular and central nervous system toxicity [1]: lower cardiovascular and central nervous system toxicity than bupivacaine
